Measured values from patent US7084176B2, “N-arylphenylacetamide derivatives and medicinal compositions containing the same” (Dainippon Pharmaceutical Co., Ltd., priority 2001, dated 2006).

Tested on: male Std:ddY mice
Assay: Phenyl-1,4-benzoquinone-induced writhing test
Format: in vivo
Conditions: for inhibition in vivo at 10 mg/kg / ED50: Mus musculus, po; for inhibition in vivo at 10 mg/kg: 1 h, read-out: Inhibitory percentage (%); for inhibition in vivo at 10 mg/kg / Inhibitory percentage (%): orally administered at a dose of 10 mg/kg, 60 minutes before PBQ; for ED50 / ED50 (mg/kg po): oral administration, logit analysis; for ED50 / ED50 (mg/kg po) / Inhibitory percentage (%): writhing inhibition; for ED50: read-out: ED50 (mg/kg po)
Procedure: Phenyl-1,4-benzoquinone-induced Writhing Test Referring to the method disclosed in Proc. Soc. exp. Biol. […] For oral administration, a test compound was suspended in 0.5% tragacanth solution. […] In the control group, a physiological saline solution containing 10% Tween 80 and 10% ethanol was administered in the case of subcutaneous administration, or a 0.5% tragacanth solution was administered in the case of oral administration. The number of writhing movements in the test compound-treated group was compared with that in the control group, and the writhing inhibitory percentage was calculated therefrom and considered as an analgesic effect. Writhing inhibitory percentage (%)=[(A−B)/A]×100 In the above equation, A means the number of writhing movements in the control group, and B means the number of writhing movements in the test compound-treated group. From the writhing inhibitory percentage of the test compound, ED50 (mg/kg) was calculated by logit analysis.

Compound	inhibition in vivo at 10 mg/kg [%]	ED50 [mg/kg]	Inhibitory percentage (%)	further results
COc1cc(CC(=O)Nc2cccc(-c3ccc(F)cc3)c2)ccc1OCCN [Example 124, 4-(2-aminoethoxy)-N-[3-(4-fluorophenyl)phenyl]-3-methoxyphenylacetamide]	100	≤ 1		ED50 (mg/kg po) (listed as Ex. 124): 0.71 mg/kg
COc1cc(CC(=O)Nc2cccc(-c3ccccc3Cl)c2)ccc1OCCN [Example 125, 4-(2-aminoethoxy)-N-[3-(2-chlorophenyl)phenyl]-3-methoxyphenylacetamide]	93	≤ 1		ED50 (mg/kg po) (listed as Ex. 125): 0.71 mg/kg
COc1cc(CC(=O)Nc2cccc(-c3cccc(Cl)c3)c2)ccc1OCCN [Example 126, 4-(2-aminoethoxy)-N-[3-(3-chlorophenyl)phenyl]-3-methoxyphenylacetamide]	89.9	2.19		
COc1cc(CC(=O)Nc2cccc(-c3cc(F)cc(F)c3)c2)ccc1OCCN [Example 129, 4-(2-aminoethoxy)-N-[3-(3,5-difluorophenyl)phenyl]-3-methoxyphenylacetamide]	76.9	1.89		
COc1cc(CC(=O)Nc2cccc(-c3ccccc3C)c2)ccc1OCCN [Example 131, 4-(2-aminoethoxy)-3-methoxy-N-[3-(2-methylphenyl)phenyl]-phenylacetamide]	100	1.1		
COc1cc(CC(=O)Nc2cccc(-c3c(C)cc(C)cc3C)c2)ccc1OCCN [Example 133, 4-(2-aminoethoxy)-3-methoxy-N-[3-(2,4,6-trimethylphenyl)-phenyl]phenylacetamide]	94	1.28		
COc1cc(CC(=O)Nc2cccc(-c3cccc(C(C)C)c3)c2)ccc1OCCN [Example 136, 4-(2-aminoethoxy)-N-[3-(3-isopropylphenyl)phenyl]-3-methoxyphenylacetamide]	99	3.11		
COc1cc(CC(=O)Nc2cccc(-c3ccc(C(F)(F)F)cc3)c2)ccc1OCCN [Example 140, 4-(2-aminoethoxy)-3-methoxy-N-[3-(4-trifluoromethylphenyl)-phenyl]phenylacetamide]	91	2.18		
COc1cc(CC(=O)Nc2cccc(-c3ccccc3C(F)(F)F)c2)ccc1OCCN [Example 142, 4-(2-aminoethoxy)-3-methoxy-N-[3-(2-trifluoromethylphenyl)-phenyl]phenylacetamide]	98.9	1.19		
COc1cc(CC(=O)Nc2cccc(-c3ccccc3-c3ccccc3)c2)ccc1OCCN [Example 143, 4-(2-aminoethoxy)-3-methoxy-N-[3-(2-phenylphenyl)phenyl]-phenylacetamide]	73.2	3.72		
COc1cc(CC(=O)Nc2cccc(-c3cccc(-c4ccccc4)c3)c2)ccc1OCCN [Example 145, 4-(2-aminoethoxy)-3-methoxy-N-[3-(3-phenylphenyl)phenyl]-phenylacetamide]	85.9			
COC(=O)c1cccc(-c2cccc(NC(=O)Cc3ccc(OCCN)c(OC)c3)c2)c1 [Example 146, 4-(2-aminoethoxy)-N-[3-(3-methoxycarbonylphenyl)phenyl]-3-methoxyphenylacetamide]	76.9	2.68		
COc1cc(CC(=O)Nc2cccc(-c3cccc(OC(F)(F)F)c3)c2)ccc1OCCN [Example 150, 4-(2-aminoethoxy)-3-methoxy-N-[3-(3-trifluoromethoxyphenyl)-phenyl]phenylacetamide]	100	1.32		
COc1cc(CC(=O)Nc2cccc(-c3ccccc3SC)c2)ccc1OCCN [Example 158, 4-(2-aminoethoxy)-3-methoxy-N-[3-(2-methylthiophenyl)-phenyl]phenylacetamide]	95.1	2.12		
COc1cc(CC(=O)Nc2cccc(-c3ccsc3)c2)ccc1OCCN [Example 161, 4-(2-aminoethoxy)-3-methoxy-N-[3-(thiophen-3-yl)phenyl]-phenylacetamide]	79.4	2.79		
COc1cc(CC(=O)Nc2cccc(-c3cccc4ccccc34)c2)ccc1OCCN [Example 163, 4-(2-aminoethoxy)-3-methoxy-N-[3-(naphthalen-1-yl)phenyl]-phenylacetamide]	87.9	1.61		
COc1cc(CC(=O)Nc2cccc(-c3cc4ccccc4o3)c2)ccc1OCCN [Example 166, 4-(2-aminoethoxy)-N-[3-(benzofuran-2-yl)phenyl]-3-methoxyphenylacetamide]	96	2.4		
COc1cc(CC(=O)Nc2cccc(-c3cccc(C(C)(C)C)c3)c2)ccc1OCCN [Example 169, 4-(2-aminoethoxy)-N-[3-(3-tert-butylphenyl)phenyl]-3-methoxyphenylacetamide]	100	1.29		
COc1cc(CC(=O)Nc2cc(-c3ccccc3)ccc2F)ccc1OCCN [Example 170, 4-(2-aminoethoxy)-N-[(2-fluoro-5-phenyl)phenyl]-3-methoxyphenylacetamide]			87.9	ED50 (mg/kg po): 1.06 mg/kg
COc1cc(CC(=O)Nc2cc(-c3ccccc3)cc(F)c2OC)ccc1OCCN [Example 171, 4-(2-aminoethoxy)-N-[(2-methoxy-3-fluoro-5-phenyl)phenyl]-3-methoxyphenylacetamide]			94.0	ED50 (mg/kg po) (listed as Ex. 171): 0.96 mg/kg
COc1cc(CC(=O)Nc2cc(-c3ccccc3)ccc2C)ccc1OCCN [Example 172, 4-(2-aminoethoxy)-N-[(2-methyl-5-phenyl)phenyl]-3-methoxyphenylacetamide]			75.9	ED50 (mg/kg po): 4.42 mg/kg
COc1cc(CC(=O)Nc2ccc(C)c(-c3ccccc3)c2)ccc1OCCN [Example 173, 4-(2-aminoethoxy)-3-methoxy-N-[(3-phenyl-4-methyl)phenyl]-phenylacetamide]			100	ED50 (mg/kg po) (listed as Ex. 173): 0.87 mg/kg
COc1ccc(-c2ccccc2)cc1NC(=O)Cc1ccc(OCCN)c(OC)c1 [Example 177, 4-(2-aminoethoxy)-3-methoxy-N-[(2-methoxy-5-phenyl)phenyl]-phenylacetamide]			78.9	ED50 (mg/kg po): 3.41 mg/kg
COc1cc(CC(=O)Nc2cc(-c3ccccc3)cc(C(F)(F)F)c2)ccc1OCCN [Example 178, 4-(2-aminoethoxy)-3-methoxy-N-[(3-trifluoromethyl-5-phenyl)-phenyl]phenylacetamide]			100	ED50 (mg/kg po): 1.65 mg/kg
COc1cc(CC(=O)Nc2ccc(OC(F)(F)F)c(-c3ccccc3)c2)ccc1OCCN [Example 179, 4-(2-aminoethoxy)-3-methoxy-N-[(3-phenyl-4-trifluoromethoxy)-phenyl]phenylacetamide]			100	ED50 (mg/kg po) (listed as Ex. 179): 0.95 mg/kg
COc1cc(CC(=O)Nc2cc(-c3ccccc3)c(C)c(-c3ccccc3)c2)ccc1OCCN [Example 181, 4-(2-aminoethoxy)-3-methoxy-N-[(4-methyl-3,5-diphenyl)-phenyl]phenylacetamide]			80.9	ED50 (mg/kg po): 1.11 mg/kg
